Measured values reported in publication PMC11091702, “CD38 restrains the activity of extracellular cGAMP in a model of multiple myeloma” (iScience, 2024).
Like-named read-outs stand apart in the source and are kept apart here.

Experiments:
CD38 (rhCD38) = target: T1, CD38 (rhCD38) (Homo sapiens, UniProt P28907); assay: tryptophan fluorescence quenching titration; type: binding
T1 construct: ectodomain of recombinant human CD38 (His-tagged)

[1] = test system: T2, NC(=O)c1ccc[n+]([C@@H]2O[C@H](COP(=O)([O-])OP(=O)(O)OC[C@H]3O[C@@H](n4cnc5c4ncn4ccnc54)[C@H](O)[C@@H]3O)[C@@H](O)[C@H]2O)c1; assay: fluorescence hydrolase assay, Km determination; type: biochemical, Homo sapiens
T2 construct: recombinant human His-tagged CD38 protein

T1 sequence (P28907 45-300): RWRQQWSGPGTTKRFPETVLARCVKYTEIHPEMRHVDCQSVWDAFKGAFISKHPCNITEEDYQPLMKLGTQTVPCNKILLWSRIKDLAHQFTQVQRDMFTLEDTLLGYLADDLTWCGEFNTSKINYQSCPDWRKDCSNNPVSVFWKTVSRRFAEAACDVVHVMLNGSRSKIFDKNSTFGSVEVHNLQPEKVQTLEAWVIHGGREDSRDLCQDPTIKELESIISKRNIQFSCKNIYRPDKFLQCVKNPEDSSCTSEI

## Nc1nc2c(ncn2[C@@H]2O[C@@H]3COP(=O)(S)O[C@H]4[C@@H](O)[C@H](n5cnc6c(N)ncnc65)O[C@@H]4COP(=O)(S)O[C@@H]2[C@@H]3O)c(=O)[nH]1 (stereo partly drawn) [2′3′-cG^sA^sMP]
CD38 (rhCD38); read-out: Kd
  Kd: 46.3 ± 9.8 µM

## NC(=O)c1ccc[n+]([C@@H]2O[C@H](COP(=O)([O-])OP(=O)(O)OC[C@H]3O[C@@H](n4cnc5c(N)ncnc54)[C@H](O)[C@@H]3O)[C@@H](O)[C@H]2O)c1 [β-NAD]
CD38 (rhCD38)
  Kd: 28 ± 9.4 µM

## CD38 (rhCD38) (Homo sapiens)
[1]
  Km: 56.2 ± 8.9 x 10^−6 M
